Measurements published in ChEMBL document CHEMBL1255490, “In vitro activities of DC-159a, a novel fluoroquinolone, against Mycobacterium species” (Antimicrob Agents Chemother, 2010).
≈ marks a conversion by molar mass, not a printed value.

How the values were obtained:
[1] = test system: Mycobacterium tuberculosis; experiment: Antimycobacterial activity against drug-susceptible Mycobacterium tuberculosis after 21 days by agar dilution method; format: functional; conditions: 504 h
[2] = test system: Mycobacterium kansasii; experiment: Antimycobacterial activity against Mycobacterium kansasii after 7 days by agar dilution method; format: functional; conditions: 168 h
[3] = test system: Mycolicibacterium fortuitum; experiment: Antimycobacterial activity against Mycobacterium fortuitum after 3 days by agar dilution method; format: functional; conditions: 72 h
[4] = test system: Mycobacterium avium; experiment: Antimycobacterial activity against Mycobacterium avium serovar 4 after 14 days by agar dilution method; format: functional; conditions: serovar 4, 336 h
[5] = test system: Mycobacterium avium; experiment: Antimycobacterial activity against Mycobacterium avium serovar 8 after 14 days by agar dilution method; format: functional; conditions: serovar 8, 336 h
[6] = test system: Mycobacterium intracellulare; experiment: Antimycobacterial activity against Mycobacterium intracellular serovar 16 after 21 days by agar dilution method; format: functional; conditions: serovar 16, 504 h
[7] = test system: Mycobacteroides chelonae; experiment: Antimycobacterial activity against Mycobacterium chelonae after 3 days by agar dilution method; format: functional; conditions: 72 h
[8] = test system: Mycobacteroides abscessus; experiment: Antimycobacterial activity against Mycobacterium abscessus after 3 days by agar dilution method; format: functional; conditions: 72 h
[9] = Cmax in monkey at 5 mg/kg, po; format: ADME, organism-based, Macaca mulatta; set-up: dose 5 mg/kg, route oral; conditions: rhesus monkey, in vivo
[10] = AUC (0 to 24 hrs) in monkey at 5 mg/kg, po; format: ADME, organism-based, Macaca mulatta; set-up: time < 24 hr, dose 5 mg/kg, route oral; conditions: rhesus monkey, plasma

Row | Compound | MIC50 [1] [µg/mL] | MIC90 [1] [µg/mL] | MIC50 [2] [µg/mL] | MIC90 [2] [µg/mL] | MIC50 [3] [µg/mL] | MIC90 [3] [µg/mL] | MIC50 [4] [µg/mL] | MIC90 [4] [µg/mL] | MIC50 [5] [µg/mL] | MIC90 [5] [µg/mL] | MIC50 [6] [µg/mL] | MIC90 [6] [µg/mL] | MIC [7] [µg/mL] | MIC50 [7] [µg/mL] | MIC90 [7] [µg/mL] | MIC50 [8] [µg/mL] | MIC90 [8] [µg/mL] | further results
1 | COc1c(N2CC3(CC3)[C@](C)(N)C2)c(F)cc2c(=O)c(C(=O)O)cn([C@@H]3C[C@@H]3F)c12 | 0.06 (≈ 0.143 µM) | 0.06 (≈ 0.143 µM) | 0.06 (≈ 0.143 µM) | 0.125 (≈ 0.298 µM) | 0.125 (≈ 0.298 µM) | 0.25 (≈ 0.596 µM) | 1 (≈ 2.38 µM) | 2 (≈ 4.77 µM) | 1 (≈ 2.38 µM) | 2 (≈ 4.77 µM) | 1 (≈ 2.38 µM) | 4 (≈ 9.54 µM) | 4 (≈ 9.54 µM) | 4 (≈ 9.54 µM) | 8 (≈ 19.1 µM) | 8 (≈ 19.1 µM) | 16 (≈ 38.1 µM) | Cmax [9]: 2200 ng/mL; AUC(0-t) at 24 h [10]: 16900 ng·h/mL
2 | COc1c(N2CCNC(C)C2)c(F)cc2c(=O)c(C(=O)O)cn(C3CC3)c12 (configuration not stated) [GATIFLOXACIN] | 0.125 (≈ 0.333 µM) | 0.25 (≈ 0.666 µM) | 0.125 (≈ 0.333 µM) | 0.5 (≈ 1.33 µM) | 0.125 (≈ 0.333 µM) | 0.25 (≈ 0.666 µM) | 2 (≈ 5.33 µM) | 8 (≈ 21.3 µM) | 2 (≈ 5.33 µM) | 8 (≈ 21.3 µM) | 4 (≈ 10.7 µM) | 16 (≈ 42.6 µM) | – | 16 (≈ 42.6 µM) | 32 (≈ 85.2 µM) | 32 (≈ 85.2 µM) | 64 (≈ 170 µM) | –
3 | C[C@H]1COc2c(N3CCN(C)CC3)c(F)cc3c(=O)c(C(=O)O)cn1c23.C[C@H]1COc2c(N3CCN(C)CC3)c(F)cc3c(=O)c(C(=O)O)cn1c23.O [LEVOFLOXACIN] | 0.5 | 0.5 | 0.25 | 1 | 0.25 | 0.5 | 8 | 32 | 8 | 32 | 8 | 32 | – | 32 | 64 | 64 | 128 | MIC [2]: 0.25 µg/mL
4 | COc1c(N2C[C@@H]3CCCN[C@@H]3C2)c(F)cc2c(=O)c(C(=O)O)cn(C3CC3)c12 [MOXIFLOXACIN] | 0.25 (≈ 0.623 µM) | 0.25 (≈ 0.623 µM) | 0.125 (≈ 0.311 µM) | 0.25 (≈ 0.623 µM) | 0.125 (≈ 0.311 µM) | 0.25 (≈ 0.623 µM) | – | – | – | – | 2 (≈ 4.98 µM) | 8 (≈ 19.9 µM) | – | 32 (≈ 79.7 µM) | 32 (≈ 79.7 µM) | 64 (≈ 159 µM) | 128 (≈ 319 µM) | –
5 | CO[C@H]1/C=C/O[C@@]2(C)Oc3c(C)c(O)c4c(O)c(c(/C=N/N5CCN(C)CC5)c(O)c4c3C2=O)NC(=O)/C(C)=C\C=C\[C@H](C)[C@H](O)[C@@H](C)[C@@H](O)[C@@H](C)[C@H](OC(C)=O)[C@@H]1C [RIFAMPIN] | 0.06 (≈ 0.0729 µM) | 0.125 (≈ 0.152 µM) | 0.25 (≈ 0.304 µM) | 0.25 (≈ 0.304 µM) | 32 (≈ 38.9 µM) | 64 (≈ 77.8 µM) | 32 (≈ 38.9 µM) | 128 (≈ 156 µM) | 32 (≈ 38.9 µM) | 128 (≈ 156 µM) | 2 (≈ 2.43 µM) | 32 (≈ 38.9 µM) | > 128 | > 128 | > 128 | > 128 | > 128 | MIC [8]: > 128 µg/mL
